Usually Vmax stands for the rate approached at saturating substrate. Usually Km stands for the substrate concentration at which the rate is half of its maximum.

Common to all, as to format: cell-based
Data set [1] addresses T1, Multidrug and toxin extrusion protein 1 (Homo sapiens, UniProt Q96FL8).
T1 sequence (Q96FL8 whole entry): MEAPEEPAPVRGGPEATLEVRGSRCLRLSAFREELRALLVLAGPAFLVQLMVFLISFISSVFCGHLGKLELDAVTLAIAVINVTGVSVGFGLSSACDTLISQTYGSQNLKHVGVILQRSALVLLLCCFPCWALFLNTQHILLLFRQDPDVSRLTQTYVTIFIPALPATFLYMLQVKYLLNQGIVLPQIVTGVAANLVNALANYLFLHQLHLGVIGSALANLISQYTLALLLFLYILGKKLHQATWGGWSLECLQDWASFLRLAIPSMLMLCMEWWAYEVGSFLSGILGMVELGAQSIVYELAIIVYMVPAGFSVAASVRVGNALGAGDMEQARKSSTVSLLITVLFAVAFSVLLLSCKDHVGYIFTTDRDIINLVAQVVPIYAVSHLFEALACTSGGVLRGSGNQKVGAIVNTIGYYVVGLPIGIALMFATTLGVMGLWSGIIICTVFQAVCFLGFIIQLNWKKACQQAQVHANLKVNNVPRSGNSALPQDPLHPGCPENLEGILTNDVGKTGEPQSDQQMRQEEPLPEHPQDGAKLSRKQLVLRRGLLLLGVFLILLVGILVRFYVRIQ
Briefly: Substrate activity at MATE1 (unknown origin) expressed in HEK293 cells assessed as intrinsic clearance by measuring ratio of Vmax (maximum transport velocity) over Km measured per mg of protein by HPLC-MS/MS analysis.

In data set [2] the target is T1, Multidrug and toxin extrusion protein 1. The experiment in a line: Substrate activity at MATE1 (unknown origin) expressed in HEK293 cells assessed as Vmax (maximum transport velocity) by HPLC-MS/MS analysis.
The next data set has as its target T2, MATE2-K (Homo sapiens, UniProt Q86VL8).
T2 sequence (Q86VL8 whole entry): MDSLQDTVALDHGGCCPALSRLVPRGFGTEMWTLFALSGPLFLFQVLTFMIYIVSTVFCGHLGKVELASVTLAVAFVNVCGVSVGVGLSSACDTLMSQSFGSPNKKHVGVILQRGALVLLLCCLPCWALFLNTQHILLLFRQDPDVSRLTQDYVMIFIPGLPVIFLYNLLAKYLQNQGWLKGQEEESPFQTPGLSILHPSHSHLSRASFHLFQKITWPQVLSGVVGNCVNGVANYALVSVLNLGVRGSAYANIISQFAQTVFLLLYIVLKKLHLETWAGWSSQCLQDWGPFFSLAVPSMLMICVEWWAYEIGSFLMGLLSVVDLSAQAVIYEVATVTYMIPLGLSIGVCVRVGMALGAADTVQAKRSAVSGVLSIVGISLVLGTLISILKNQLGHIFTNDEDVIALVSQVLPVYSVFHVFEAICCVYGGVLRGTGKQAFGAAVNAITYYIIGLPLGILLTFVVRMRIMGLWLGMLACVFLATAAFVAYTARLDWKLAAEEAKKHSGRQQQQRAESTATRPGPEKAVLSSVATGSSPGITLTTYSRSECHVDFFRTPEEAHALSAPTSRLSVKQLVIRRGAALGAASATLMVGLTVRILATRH
The experiment in a line: Substrate activity at MATE2-K (unknown origin) expressed in HEK293 cells assessed as substrate concentration to achieve half of Vmax (maximum transport velocity) measured per mg of protein by HPLC-MS/MS analysis. As to conditions: HEK293 cells expressing MATE2-K.

Data set [3] concerns the target T3, Multidrug and toxin extrusion protein 2 (Homo sapiens, UniProt Q86VL8).
T3 sequence (Q86VL8 whole entry): T2 sequence (Q86VL8 whole entry)
The experiment in a line: Substrate activity at MATE2-K (unknown origin) expressed in HEK293 cells assessed as intrinsic clearance by measuring ratio of Vmax (maximum transport velocity) over Km measured per mg of protein by HPLC-MS/MS analysis.

Data set [4] concerns the target T3, Multidrug and toxin extrusion protein 2. Briefly: Substrate activity at MATE2-K (unknown origin) expressed in HEK293 cells assessed as Vmax (maximum transport velocity) by HPLC-MS/MS analysis.

For the compound `CN(C)CCc1c[nH]c2ccc(C[C@@H]3COC(=O)N3)cc12`, the CL was determined as 94.5 µL/min in data set [1] and 54.2 µL/min in data set [3]. Further, the Vmax in data set [2] is reported as 2624 pmol/min; in data set [4], 992 pmol/min. The Km at MATE2-K was 18.3 µM.

For the origin of these results see ChEMBL document CHEMBL6182944, “Substrate Specificity of the Organic Cation Transporters MATE1 and MATE2K and Functional Overlap with OCT1 and OCT2” (J Med Chem, 2025).
